Experimental data published in patent publication US6753345B2, “7-hexanolytaxol and methods for preparing the same” (Hauser, Inc., priority 1998, dated 2004).
≈ marks a conversion by molar mass, not a printed value. Read-outs that look alike come from different tables or passages of the source.

Key:
[1] = system: 26 cell lines; assay: 26 cell line growth inhibition screen, sulforhodamine stain; type: cell-based; details: 48 h
[2] = system: HL-60(TB); assay: cells; details: Homo sapiens, HL-60, 48 h
[3] = system: NCI-H322M; assay: cells; details: Homo sapiens, 48 h, read-out: Log10 GI50 (converted)
[4] = system: CCRF-CEM; assay: SRB cytotoxicity screening assay (Leukemia); details: for Log10 TGI: PG=0
[5] = system: OVCAR-3; assay: SRB cytotoxicity screening assay (Ovarian)
[6] = system: OVCAR-4; assay: SRB cytotoxicity screening assay (Ovarian)
[7] = system: OVCAR-5; assay: SRB cytotoxicity screening assay (Ovarian)
[8] = system: OVCAR-6; assay: SRB cytotoxicity screening assay (Ovarian)
[9] = system: K-562; assay: SRB cytotoxicity screening assay (Leukemia)
[10] = system: M14; assay: SRB cytotoxicity screening assay (Melanoma)
[11] = system: UACC-62; assay: SRB cytotoxicity screening assay (Melanoma)
[12] = system: SF-539; assay: SRB cytotoxicity screening assay (CNS Cancer)
[13] = system: SNB-19; assay: SRB cytotoxicity screening assay (CNS Cancer)
[14] = system: U251; assay: SRB cytotoxicity screening assay (CNS Cancer)
[15] = system: HCC-2998; assay: SRB cytotoxicity screening assay (Colon Cancer)
[16] = system: HT29; assay: SRB cytotoxicity screening assay (Colon Cancer)
[17] = system: KM12; assay: SRB cytotoxicity screening assay (Colon Cancer)
[18] = system: SW-620; assay: SRB cytotoxicity screening assay (Colon Cancer)
[19] = system: 786-0; assay: SRB cytotoxicity screening assay (Renal Cancer)
[20] = system: A498; assay: SRB cytotoxicity screening assay (Renal Cancer)
[21] = system: MCF7/ADR-RES; assay: SRB cytotoxicity screening assay (Breast Cancer)
[22] = system: PC-3; assay: SRB cytotoxicity screening assay (Prostate Cancer)
[23] = system: EKVX; assay: SRB cytotoxicity screening assay (Non-Small Cell Lung Cancer)
[24] = system: NCI-H226; assay: as above
[25] = system: NCI-H522; assay: as above

CCCCCC(=O)O[C@H]1C[C@H]2OC[C@@]2(OC(C)=O)[C@H]2[C@H](OC(=O)c3ccccc3)[C@]3(O)C[C@H](OC(=O)[C@H](O)[C@@H](NC(=O)c4ccccc4)c4ccccc4)C(C)=C([C@@H](OC(C)=O)C(=O)[C@]12C)C3(C)C [7-hexanoyltaxol]
IC50 ([1]; read-out: Mean IC50 (26 cell line Mean Growth inhibition IC50 value)): 8 ng/mL (≈ 8.4 nM) | IC50 ([1]; read-out: Min IC50 (lowest observed IC50 value in 26 cell line screen)): 1 ng/mL (≈ 1.05 nM) | GI50 ([2]; read-out: Log10 GI50 (converted)): < 10 nM | CC50 ([2]; read-out: Log10 LC50 (converted)): > 100000 nM | GI50 [3]: 20 nM | Log10 TGI ([4]; CCRF-CEM (Leukemia), 48 hour incubation): −6.1 molar | Log10 TGI ([4]; CCRF-CEM (Leukemia), 48 hour incubation, listed as 7-Hexanoyltaxol): <−8.00 molar | Log10 LC50 ([4]; CCRF-CEM (Leukemia), PG=−50, 48 hour incubation): >−4.00 molar | GI50 ([4]; Homo sapiens, CCRF-CEM, 48 h, read-out: Log10 GI50 (converted)): < 10 nM | CC50 ([4]; Homo sapiens, CCRF-CEM, 48 h, read-out: Log10 LC50 (converted)): > 100000 nM | IC50 ([4]; Homo sapiens, CCRF-CEM, read-out: concentration necessary to achieve primary growth inhibition (percentage growth +50)): ~100 nM | GI50 ([5]; Homo sapiens, OVCAR-3, 48 h, read-out: Log10 GI50 (converted)): < 10 nM | CC50 ([5]; Homo sapiens, OVCAR-3, 48 h, read-out: Log10 LC50 (converted)): 20900 nM | Log10 TGI ([5]; OVCAR-3 (Ovarian), PG=0, 48 hour incubation): −7.65 molar | GI50 ([6]; Homo sapiens, OVCAR-4, 48 h, read-out: Log10 GI50 (converted)): 1580 nM | CC50 ([6]; Homo sapiens, OVCAR-4, 48 h, read-out: Log10 LC50 (converted)): > 100000 nM | Log10 TGI ([6]; OVCAR-4 (Ovarian), PG=0, 48 hour incubation): −4.21 molar | GI50 ([7]; Homo sapiens, OVCAR-5, 48 h, read-out: Log10 GI50 (converted)): < 10 nM | CC50 ([7]; Homo sapiens, OVCAR-5, 48 h, read-out: Log10 LC50 (converted)): 33900 nM | Log10 TGI ([7]; OVCAR-5 (Ovarian), PG=0, 48 hour incubation): −5.47 molar | GI50 ([8]; 48 h, read-out: Log10 GI50 (converted)): < 10 nM | CC50 ([8]; 48 h, read-out: Log10 LC50 (converted)): 85100 nM | Log10 TGI ([8]; OVCAR-6 (Ovarian), PG=0, 48 hour incubation): −4.88 molar | GI50 ([9]; Homo sapiens, K562, 48 h, read-out: Log10 GI50 (converted)): < 10 nM | CC50 ([9]; Homo sapiens, K562, 48 h, read-out: Log10 LC50 (converted)): > 100000 nM | Log10 TGI ([9]; K-562 (Leukemia), PG=0, 48 hour incubation): −7.05 molar | GI50 ([10]; Homo sapiens, M14, 48 h, read-out: Log10 GI50 (converted)): < 10 nM | CC50 ([10]; Homo sapiens, M14, 48 h, read-out: Log10 LC50 (converted)): 1580 nM | Log10 TGI ([10]; M14 (Melanoma), PG=0, 48 hour incubation): −7.94 molar | GI50 ([11]; Homo sapiens, UACC-62, 48 h, read-out: Log10 GI50 (converted)): < 10 nM | CC50 ([11]; Homo sapiens, UACC-62, 48 h, read-out: Log10 LC50 (converted)): > 100000 nM | Log10 TGI ([11]; UACC-62 (Melanoma), PG=0, 48 hour incubation): −4.78 molar | GI50 ([12]; Homo sapiens, SF-539, 48 h, read-out: Log10 GI50 (converted)): < 10 nM | CC50 ([12]; Homo sapiens, SF-539, 48 h, read-out: Log10 LC50 (converted)): 1510 nM | Log10 TGI ([12]; SF-539 (CNS Cancer), PG=0, 48 hour incubation): −7.32 molar | GI50 ([13]; Homo sapiens, SNB-19, 48 h, read-out: Log10 GI50 (converted)): 10.2 nM | CC50 ([13]; Homo sapiens, SNB-19, 48 h, read-out: Log10 LC50 (converted)): > 100000 nM | Log10 TGI ([13]; SNB-19 (CNS Cancer), PG=0, 48 hour incubation): −4.53 molar | GI50 ([14]; Homo sapiens, U-251, 48 h, read-out: Log10 GI50 (converted)): < 10 nM | CC50 ([14]; Homo sapiens, U-251, 48 h, read-out: Log10 LC50 (converted)): 32400 nM | Log10 TGI ([14]; U251 (CNS Cancer), PG=0, 48 hour incubation): −4.98 molar | Log10 TGI ([15]; HCC-2998 (Colon Cancer), PG=0, 48 hour incubation): −7.35 molar | GI50 ([15]; Homo sapiens, HCC 2998, 48 h, read-out: Log10 GI50 (converted)): < 10 nM | CC50 ([15]; Homo sapiens, HCC 2998, 48 h, read-out: Log10 LC50 (converted)): 8320 nM | Log10 TGI ([16]; HT29 (Colon Cancer), PG=0, 48 hour incubation): −4.95 molar | GI50 ([16]; Homo sapiens, HT-29, 48 h, read-out: Log10 GI50 (converted)): < 10 nM | CC50 ([16]; Homo sapiens, HT-29, 48 h, read-out: Log10 LC50 (converted)): 33100 nM | GI50 ([17]; Homo sapiens, KM12, 48 h, read-out: Log10 GI50 (converted)): < 10 nM | CC50 ([17]; Homo sapiens, KM12, 48 h, read-out: Log10 LC50 (converted)): > 100000 nM | Log10 TGI ([17]; KM12 (Colon Cancer), PG=0, 48 hour incubation): −4.90 molar | GI50 ([18]; Homo sapiens, SW-620, 48 h, read-out: Log10 GI50 (converted)): < 10 nM | CC50 ([18]; Homo sapiens, SW-620, 48 h, read-out: Log10 LC50 (converted)): > 100000 nM | Log10 TGI ([18]; SW-620 (Colon Cancer), PG=0, 48 hour incubation): >−4.00 molar | Log10 TGI ([19]; 786-0 (Renal Cancer), PG=0, 48 hour incubation): −4.88 molar | GI50 ([19]; Homo sapiens, 786-0, 48 h, read-out: Log10 GI50 (converted)): < 10 nM | CC50 ([19]; Homo sapiens, 786-0, 48 h, read-out: Log10 LC50 (converted)): 36300 nM | Log10 TGI ([20]; A498 (Renal Cancer), PG=0, 48 hour incubation): −7.29 molar | GI50 ([20]; Homo sapiens, A498, 48 h, read-out: Log10 GI50 (converted)): < 10 nM | CC50 ([20]; Homo sapiens, A498, 48 h, read-out: Log10 LC50 (converted)): > 100000 nM | GI50 ([21]; Homo sapiens, MCF7, 48 h, read-out: Log10 GI50 (converted)): 1120 nM | CC50 ([21]; Homo sapiens, MCF7, 48 h, read-out: Log10 LC50 (converted)): > 100000 nM | Log10 TGI ([21]; MCF7/ADR-RES (Breast Cancer), PG=0, 48 hour incubation): −4.80 molar | GI50 ([22]; Homo sapiens, PC-3, 48 h, read-out: Log10 GI50 (converted)): < 10 nM | CC50 ([22]; Homo sapiens, PC-3, 48 h, read-out: Log10 LC50 (converted)): > 100000 nM | Log10 TGI ([22]; PC-3 (Prostate Cancer), PG=0, 48 hour incubation): −5.48 molar | Log10 TGI ([23]; EKVX (Non-Small Cell Lung Cancer), PG=0, 48 hour incubation): −4.29 molar | GI50 ([23]; Homo sapiens, EKVX, 48 h, read-out: Log10 GI50 (converted)): 398 nM | CC50 ([23]; Homo sapiens, EKVX, 48 h, read-out: Log10 LC50 (converted)): > 100000 nM | GI50 ([24]; Homo sapiens, NCI-H226, 48 h, read-out: Log10 GI50 (converted)): < 10 nM | CC50 ([24]; Homo sapiens, NCI-H226, 48 h, read-out: Log10 LC50 (converted)): > 100000 nM | Log10 TGI ([24]; NCI-H226 (Non-Small Cell Lung Cancer), PG=0, 48 hour incubation): −4.76 molar | GI50 ([25]; Homo sapiens, NCI-H522, 48 h, read-out: Log10 GI50 (converted)): < 10 nM | CC50 ([25]; Homo sapiens, NCI-H522, 48 h, read-out: Log10 LC50 (converted)): > 100000 nM | Log10 TGI ([25]; NCI-H522 (Non-Small Cell Lung Cancer), PG=0, 48 hour incubation): −5.91 molar
